Tested on: MV-4-11 cells
Experiment: Gene expression microarray analysis (Affymetrix PrimeView) and GSEA
Format: cell-based, human
Parameters: RFU PODN (11730768_x_at) / Fold change /veh PODN (11730768_x_at) / RFU LINC00158 (11744669_a_at) / Fold change /veh LINC00158 (11744669_a_at) / RFU DUSP10 (11751237_a_at) / Fold change /veh DUSP10 (11751237_a_at) / RFU ID3 (11757404_x_at) / Fold change /veh ID3 (11757404_x_at) / RFU PLEKHG5 (11737974_s_at) / Fold change /veh PLEKHG5 (11737974_s_at) / RFU LRRC4B (11730491_at) / Fold change /veh LRRC4B (11730491_at) / RFU GIMAP4 (11747438_a_at) / Fold change /veh GIMAP4 (11747438_a_at) / RFU KRT8 (11758183_x_at) / Fold change /veh KRT8 (11758183_x_at) / RFU CNN1 (11734310_a_at) / Fold change /veh CNN1 (11734310_a_at) / RFU VPS37D (11726825_at) / Fold change /veh VPS37D (11726825_at) / RFU C10orf10 (11716522_x_at) / Fold change /veh C10orf10 (11716522_x_at) / RFU KIR2DL2 /// KIR2DL4 /// KIR2DL5A /// KIR2DL5B /// KIR2DS1 /// KIR2DS2 /// KIR2DS3 /// KIR2DS4 /// KIR3DL3 /// KIR3DL3 /// KIR3DS1 (11738374_at) / Fold change /veh KIR2DL2 /// KIR2DL4 /// KIR2DL5A /// KIR2DL5B /// KIR2DS1 /// KIR2DS2 /// KIR2DS3 /// KIR2DS4 /// KIR3DL3 /// KIR3DL3 /// KIR3DS1 (11738374_at) / RFU C1QL1 (11718748_at) / Fold change /veh C1QL1 (11718748_at) / RFU TMPRSS4 (11747572_a_at) / Fold change /veh TMPRSS4 (11747572_a_at) / RFU HAMP (11756126_x_at) / Fold change /veh HAMP (11756126_x_at) / RFU RNFT2 (11725882_a_at) / Fold change /veh RNFT2 (11725882_a_at) / RFU NR4A2 (11747474_a_at) / Fold change /veh NR4A2 (11747474_a_at) / RFU ABCC12 (11746883_a_at) / Fold change /veh ABCC12 (11746883_a_at) / RFU TMEM136 (11760407_x_at) / Fold change /veh TMEM136 (11760407_x_at) / RFU CLDN22 /// WWC2 (11732394_at) / Fold change /veh CLDN22 /// WWC2 (11732394_at) / RFU HLA-DPB1 (11760878_x_at) / Fold change /veh HLA-DPB1 (11760878_x_at) / RFU SPINT1 (11716480_a_at) / Fold change /veh SPINT1 (11716480_a_at) / RFU GAP43 (11754022_s_at) / Fold change /veh GAP43 (11754022_s_at) / RFU A4GNT (11735810_at) / Fold change /veh A4GNT (11735810_at) / RFU PRB3 (11715151_x_at) / Fold change /veh PRB3 (11715151_x_at) / RFU TUBB4B (11761932_at) / Fold change /veh TUBB4B (11761932_at) / RFU CAPN14 (11732068_a_at) / Fold change /veh CAPN14 (11732068_a_at) / RFU TMCC2 (11721928_a_at) / Fold change /veh TMCC2 (11721928_a_at) / RFU IRGQ (11745062_a_at) / Fold change /veh IRGQ (11745062_a_at) / RFU FAM174B (11720279_a_at) / Fold change /veh FAM174B (11720279_a_at) / RFU TMPRSS4 (11748680_a_at) / Fold change /veh TMPRSS4 (11748680_a_at) / RFU FAM212B (11763350_a_at) / Fold change /veh FAM212B (11763350_a_at) / RFU PLEKHG5 (11743358_a_at) / Fold change /veh PLEKHG5 (11743358_a_at) / RFU ZSCAN30 (11745921_a_at) / Fold change /veh ZSCAN30 (11745921_a_at) / RFU CMKLR1 (11741424_a_at) / Fold change /veh CMKLR1 (11741424_a_at) / RFU LOC101060620 /// MAPK8IP1 (11723275_at) / Fold change /veh LOC101060620 /// MAPK8IP1 (11723275_at) / RFU SPTSSB (11747773_x_at) / Fold change /veh SPTSSB (11747773_x_at) / RFU PRSS12 (11739890_at) / Fold change /veh PRSS12 (11739890_at) / RFU BIN1 (11741810_x_at) / Fold change /veh BIN1 (11741810_x_at) / RFU WNT11 (11732464_a_at) / Fold change /veh WNT11 (11732464_a_at) / RFU C10orf10 (11716521_a_at) / Fold change /veh C10orf10 (11716521_a_at) / RFU C5orf56 (11738089_at) / Fold change /veh C5orf56 (11738089_at) / RFU CYB561 (11721691_x_at) / Fold change /veh CYB561 (11721691_x_at) / RFU ANKRD19P (11752326_a_at) / Fold change /veh ANKRD19P (11752326_a_at) / RFU OR2T12 /// OR2T33 /// OR2T8 (11738714_s_at) / Fold change /veh OR2T12 /// OR2T33 /// OR2T8 (11738714_s_at) / RFU VCAN (11748164_a_at) / Fold change /veh VCAN (11748164_a_at) / RFU JSRP1 (11732532_at) / Fold change /veh JSRP1 (11732532_at) / RFU KRTAP10-11 (11738290_x_at) / Fold change /veh KRTAP10-11 (11738290_x_at) / RFU MYO3A (11730013_a_at) / Fold change /veh MYO3A (11730013_a_at) / RFU EBF3 (11725865_a_at) / Fold change /veh EBF3 (11725865_a_at) / RFU CAMK2N1 (11719241_x_at) / Fold change /veh CAMK2N1 (11719241_x_at) / RFU C5orf56 (11738088_a_at) / Fold change /veh C5orf56 (11738088_a_at) / RFU OLFML3 (11715873_a_at) / Fold change /veh OLFML3 (11715873_a_at) / RFU LOC100653217 /// NTM (11731650_a_at) / Fold change /veh LOC100653217 /// NTM (11731650_a_at) / RFU MAPK11 (11762145_a_at) / Fold change /veh MAPK11 (11762145_a_at) / RFU FIZ1 (11724087_x_at) / Fold change /veh FIZ1 (11724087_x_at) / RFU OASL (11726364_x_at) / Fold change /veh OASL (11726364_x_at) / RFU SOX15 (11748057_x_at) / Fold change /veh SOX15 (11748057_x_at) / RFU CD79A (11719716_a_at) / Fold change /veh CD79A (11719716_a_at) / RFU HIST1H1D (11736915_at) / Fold change /veh HIST1H1D (11736915_at) / RFU CASKIN2 (11723855_a_at) / Fold change /veh CASKIN2 (11723855_a_at) / RFU LOC730098 (11760151_x_at) / Fold change /veh LOC730098 (11760151_x_at) / RFU OR4N2 (11742367_at) / Fold change /veh OR4N2 (11742367_at) / RFU PRRT2 (11749266_a_at) / Fold change /veh PRRT2 (11749266_a_at) / RFU SNX32 (11753110_a_at) / Fold change /veh SNX32 (11753110_a_at) / RFU CDHR5 (11726645_a_at) / Fold change /veh CDHR5 (11726645_a_at) / RFU RCAN1 (11760418_a_at) / Fold change /veh RCAN1 (11760418_a_at) / RFU FAM167A (11723789_a_at) / Fold change /veh FAM167A (11723789_a_at) / RFU FAM26E (11764081_at) / Fold change /veh FAM26E (11764081_at) / RFU ISYNA1 (11749810_s_at) / Fold change /veh ISYNA1 (11749810_s_at) / RFU ACY1 (11761880_at) / Fold change /veh ACY1 (11761880_at) / RFU 11764098_at / Fold change /veh 11764098_at / RFU SAMD14 (11745864_x_at) / Fold change /veh SAMD14 (11745864_x_at) / RFU NPB (11741838_a_at) / Fold change /veh NPB (11741838_a_at) / RFU TMPRSS6 (11731388_a_at) / Fold change /veh TMPRSS6 (11731388_a_at) / RFU KRTAP10-2 (11738614_at) / Fold change /veh KRTAP10-2 (11738614_at) / RFU ARHGAP8 /// PRR5-ARHGAP8 (11727945_x_at) / Fold change /veh ARHGAP8 /// PRR5-ARHGAP8 (11727945_x_at) / RFU KRTAP5-7 /// NADSYN1 (11734609_at) / Fold change /veh KRTAP5-7 /// NADSYN1 (11734609_at) / RFU RASL12 (11751679_a_at) / Fold change /veh RASL12 (11751679_a_at) / RFU CDKN2B (11736163_a_at) / Fold change /veh CDKN2B (11736163_a_at) / RFU PRF1 (11729649_at) / Fold change /veh PRF1 (11729649_at) / RFU, ZNF638 /// ZNF638-IT1 / Fold change vs veh, ZNF638 /// ZNF638-IT1 / RFU, PANK3 / Fold change vs veh, PANK3 / RFU, SH3YL1 / Fold change vs veh, SH3YL1 / RFU, ZEB2 / Fold change vs veh, ZEB2 / RFU, NRIP1 / Fold change vs veh, NRIP1 / RFU, PTTG1IP / Fold change vs veh, PTTG1IP / RFU, CAPN2 / Fold change vs veh, CAPN2 / RFU, MED14 / Fold change vs veh, MED14 / RFU, SNORA58 / Fold change vs veh, SNORA58 / RFU, C1orf63 / Fold change vs veh, C1orf63 / RFU, LRRFIP1 / Fold change vs veh, LRRFIP1 / RFU, NDUFAF7 / Fold change vs veh, NDUFAF7 / RFU, SLC12A2 / Fold change vs veh, SLC12A2 / RFU, IBTK / Fold change vs veh, IBTK / RFU, ESF1 / Fold change vs veh, ESF1 / Fold change vs veh, TMEM50B / RFU, TAOK1 / Fold change vs veh, TAOK1 / RFU, ACBD3 / Fold change vs veh, ACBD3 / RFU, TMA16 / Fold change vs veh, TMA16 / RFU, RWDD3 / Fold change vs veh, RWDD3 / RFU, BCAT1 / Fold change vs veh, BCAT1 / RFU, EDEM3 / Fold change vs veh, EDEM3 / RFU, TMEM33 / Fold change vs veh, TMEM33 / RFU, WDR75 / Fold change vs veh, WDR75 / RFU, AHCTF1 / Fold change vs veh, AHCTF1 / RFU, TFRC / Fold change vs veh, TFRC / RFU, ZDHHC17 / Fold change vs veh, ZDHHC17 / RFU, NOM1 / Fold change vs veh, NOM1 / RFU, ARL8B / Fold change vs veh, ARL8B / RFU, ZBTB11 / Fold change vs veh, ZBTB11 / RFU, TAMM41 / Fold change vs veh, TAMM41 / RFU, KIAA1704 /// LOC100996395 / Fold change vs veh, KIAA1704 /// LOC100996395 / RFU, ING1 / Fold change vs veh, ING1 / RFU, TRMT61B / Fold change vs veh, TRMT61B / RFU, FUBP3 / Fold change vs veh, FUBP3 / RFU, TP53 / Fold change vs veh, TP53 / RFU, TNKS2 / Fold change vs veh, TNKS2 / RFU, ZFP14 / Fold change vs veh, ZFP14 / RFU, ACTR2 / Fold change vs veh, ACTR2 / RFU, PPP3R1 / Fold change vs veh, PPP3R1 / RFU, PIK3R1 / Fold change vs veh, PIK3R1 / RFU, HNRNPA1 / Fold change vs veh, HNRNPA1 / RFU, RNF170 / Fold change vs veh, RNF170 / RFU, ZNF28 / Fold change vs veh, ZNF28 / RFU, RNGTT / Fold change vs veh, RNGTT / RFU, OGT / Fold change vs veh, OGT / RFU, BRD1 / Fold change vs veh, BRD1 / RFU, MARS / Fold change vs veh, MARS / RFU, ZNF655 / Fold change vs veh, ZNF655 / RFU, FAHD1 / Fold change vs veh, FAHD1 / RFU, BDP1 / Fold change vs veh, BDP1 / RFU, LRRCC1 / Fold change vs veh, LRRCC1 / RFU, ARID1A / Fold change vs veh, ARID1A / RFU, ZNF146 / Fold change vs veh, ZNF146 / RFU, ZNF330 / Fold change vs veh, ZNF330 / RFU, GPN3 / Fold change vs veh, GPN3 / RFU, C9orf123 / Fold change vs veh, C9orf123 / RFU, N4BP2L2 / Fold change vs veh, N4BP2L2 / RFU, ARFIP1 / Fold change vs veh, ARFIP1 / RFU, FAM179B / Fold change vs veh, FAM179B / RFU, BCL10 / Fold change vs veh, BCL10 / RFU, UHRF1BP1L / Fold change vs veh, UHRF1BP1L / RFU, BET1 / Fold change vs veh, BET1 / RFU, CNOT2 / Fold change vs veh, CNOT2 / RFU, ZNF268 / Fold change vs veh, ZNF268 / Fold change vs veh, ZNF507 / RFU, DGCR2 / Fold change vs veh, DGCR2 / RFU, WDSUB1 / Fold change vs veh, WDSUB1 / Fold change vs veh, HSP90B1 /// MIR3652 / RFU, ADSS / Fold change vs veh, ADSS / RFU, GK / Fold change vs veh, GK / RFU, ZNF148 / Fold change vs veh, ZNF148 / RFU, TAF9 / Fold change vs veh, TAF9 / RFU, SLC1A5 / Fold change vs veh, SLC1A5 / RFU, SLMO2 / Fold change vs veh, SLMO2 / RFU, ABCC4 / Fold change vs veh, ABCC4 / RFU, LOC101060439 /// RAP1B / Fold change vs veh, LOC101060439 /// RAP1B / RFU, RFX7 / Fold change vs veh, RFX7 / RFU, GTPBP10 / Fold change vs veh, GTPBP10 / RFU, CNEP1R1 / Fold change vs veh, CNEP1R1 / RFU, BIVM-ERCC5 /// ERCC5 / Fold change vs veh, BIVM-ERCC5 /// ERCC5 / RFU, ILF3 / Fold change vs veh, ILF3 / RFU 11762660_at / Fold change /veh 11762660_at / RFU VCAN (11757783_s_at) / Fold change /veh VCAN (11757783_s_at) / RFU DDX43 (11728927_at) / Fold change /veh DDX43 (11728927_at) / RFU KRT8 (11758188_x_at) / Fold change /veh KRT8 (11758188_x_at) / RFU NKD1 (11759106_at) / Fold change /veh NKD1 (11759106_at) / RFU SRD5A1 (11742802_a_at) / Fold change /veh SRD5A1 (11742802_a_at) / RFU TPSAB1 /// TPSB2 (11721975_s_at) / Fold change /veh TPSAB1 /// TPSB2 (11721975_s_at) / RFU GSTM3 (11746129_a_at) / Fold change /veh GSTM3 (11746129_a_at) / RFU IL23R (11737362_x_at) / Fold change /veh IL23R (11737362_x_at) / RFU TMEM51 (11727254_a_at) / Fold change /veh TMEM51 (11727254_a_at) / RFU PIWIL2 (11732686_x_at) / Fold change /veh PIWIL2 (11732686_x_at) / RFU ORM1 (11744905_x_at) / Fold change /veh ORM1 (11744905_x_at) / RFU CCDC152 (11743942_at) / Fold change /veh CCDC152 (11743942_at) / RFU ECM1 (11717891_a_at) / Fold change /veh ECM1 (11717891_a_at) / RFU IL23R (11748794_a_at) / Fold change /veh IL23R (11748794_a_at) / RFU TNFAIP8L3 (11732012_x_at) / Fold change /veh TNFAIP8L3 (11732012_x_at) / RFU MBOAT4 (11741988_at) / Fold change /veh MBOAT4 (11741988_at) / RFU 11764193_at / Fold change /veh 11764193_at / RFU TMEM53 (11763286_at) / Fold change /veh TMEM53 (11763286_at) / RFU MAGEB2 (11727129_at) / Fold change /veh MAGEB2 (11727129_at) / RFU TMEM200A (11744735_a_at) / Fold change /veh TMEM200A (11744735_a_at) / RFU CCDC152 (11751479_a_at) / Fold change /veh CCDC152 (11751479_a_at) / RFU FAM211A (11726209_a_at) / Fold change /veh FAM211A (11726209_a_at) / RFU RGS16 (11746705_a_at) / Fold change /veh RGS16 (11746705_a_at) / RFU VCAN (11755009_s_at) / Fold change /veh VCAN (11755009_s_at) / RFU RHOB (11743442_s_at) / Fold change /veh RHOB (11743442_s_at) / RFU RGS16 (11720943_a_at) / Fold change /veh RGS16 (11720943_a_at) / RFU RGS16 (11720944_at) / Fold change /veh RGS16 (11720944_at) / RFU, VPS4B / Fold change vs veh, VPS4B / RFU, CREB1 / Fold change vs veh, CREB1 / RFU, DNAJC13 / Fold change vs veh, DNAJC13 / RFU, GNAQ / Fold change vs veh, GNAQ / RFU, CDK5R1 / Fold change vs veh, CDK5R1 / RFU, ZRANB3 / Fold change vs veh, ZRANB3 / RFU, CUL4A / Fold change vs veh, CUL4A / RFU, CCNY / Fold change vs veh, CCNY / RFU, UFL1 / Fold change vs veh, UFL1 / RFU, COG3 / Fold change vs veh, COG3 / RFU, DIAPH2 / Fold change vs veh, DIAPH2 / RFU, SKA2 / Fold change vs veh, SKA2 / RFU, AFF3 / Fold change vs veh, AFF3 / RFU, LMF1 / Fold change vs veh, LMF1 / RFU, IPO11 / Fold change vs veh, IPO11 / RFU, DFFB / Fold change vs veh, DFFB / RFU, FOXP1 / Fold change vs veh, FOXP1 / RFU, CARD8 / Fold change vs veh, CARD8 / RFU, STRN3 / Fold change vs veh, STRN3 / RFU, ADK / Fold change vs veh, ADK / RFU, RASSF2 / Fold change vs veh, RASSF2 / RFU, WIPF1 / Fold change vs veh, WIPF1 / RFU, LARP1B / Fold change vs veh, LARP1B / RFU, RASA1 / Fold change vs veh, RASA1 / RFU, RB1 / Fold change vs veh, RB1 / RFU, PPFIA1 / Fold change vs veh, PPFIA1 / RFU, MAT2A / Fold change vs veh, MAT2A / RFU, CCT5 / Fold change vs veh, CCT5 / RFU, WDR92 / Fold change vs veh, WDR92 / RFU, CUX1 / Fold change vs veh, CUX1 / RFU, TTC7A / Fold change vs veh, TTC7A / RFU, TMEM135 / Fold change vs veh, TMEM135 / RFU, DEPTOR / Fold change vs veh, DEPTOR / RFU, CPM / Fold change vs veh, CPM / RFU, DNAJB6 / Fold change vs veh, DNAJB6 / RFU, CACNA2D3 / Fold change vs veh, CACNA2D3 / RFU, DTX4 / Fold change vs veh, DTX4 / RFU, TFCP2 / Fold change vs veh, TFCP2 / RFU, GMCL1 /// GMCL1P1 / Fold change vs veh, GMCL1 /// GMCL1P1 / RFU, AEBP2 / Fold change vs veh, AEBP2 / RFU, SNHG1 /// SNORD22 /// SNORD25 /// SNORD26 /// SNORD27 /// SNORD28 /// SNORD29 /// SNORD31 / Fold change vs veh, SNHG1 /// SNORD22 /// SNORD25 /// SNORD26 /// SNORD27 /// SNORD28 /// SNORD29 /// SNORD31 / Fold change (Aza/veh), C12orf56 (ProbeSet 11735607_a_at) / Fold change (ACY-1035/veh), C12orf56 (ProbeSet 11735607_a_at) / Fold change (Aza/veh), FGFR1OP (ProbeSet 11751329_s_at) / Fold change (ACY-1035/veh), FGFR1OP (ProbeSet 11751329_s_at) / Fold change (Aza/veh), VPS36 (ProbeSet 11739960_a_at) / Fold change (ACY-1035/veh), VPS36 (ProbeSet 11739960_a_at) / RFU SYPL1 (11715823_x_at) / Fold change /veh SYPL1 (11715823_x_at) / RFU IGFBP7 (11715501_s_at) / Fold change /veh IGFBP7 (11715501_s_at) / RFU REEP3 (11722064_at) / Fold change /veh REEP3 (11722064_at) / RFU IGLL1 (11728026_x_at) / Fold change /veh IGLL1 (11728026_x_at): dose or concentration left out as unconfirmed
Details: ProbeSet 11747888_a_at; LIST D

Nc1ncn([C@@H]2O[C@H](CO)[C@@H](O)[C@H]2O)c(=O)n1 [azacitidine] was tested, and the “Fold change vs veh, SH3YL1” value was 0.79.
